Experiment [1] relates to MOLM-13 cells. The experiment in a line: MOLM-13 Uridine Rescue Assay. Type of experiment: cell-based. As to conditions: Homo sapiens; MOLM-13 cell proliferation with 100 μM Uridine added, 72 Hours of culture. The method, then: The following assay was conducted to measure proliferation of MOLM-13 cells in the presence of each compound studied. This assay was included as an indicator of DHODH inhibition, as growth of MOLM-13 cells is known to depend on synthesis of pyrimidines using the de novo pathway, which can be blocked by inhibition of DHODH. • 1. MOLM-13 cells were cultured in RPMI 1640 medium+10% Fetal Bovine Serum (FBS). Only low passage cells (<20) were used for the compound tests • 2. On day 1, Log-phase growing Molm-13 Cells were counted and diluted to 10^5 cells/mL in RPMI 1640 medium+10% FBS • 3. 100 μL of diluted MOLM-13 cells in 96 well white plates were seeded, for a final density of 10^4 cells/well. • 4. 0.5 μL of pre-diluted 200× compounds or DMSO control was added to each well. The final DMSO concentration was 0.5%. • 5. After 72 Hours of culture at 37° C., 5% CO2, the plates were taken out and cooled to RT, then 50 μL CellTiter-Glo® (Promega) was added, and the composition was mixed at RT for 10 minutes. • 6. The plates were then read by ViewLux (Speed-fast, Gain-High, Bining-1X, 5 seconds).
Several compounds were also tested in a Uridine rescue assay. In the Uridine rescue assay, using the procedure in Example 1 above, an additional plate of MOLM-13 cell cultures was prepared, to which 100 μM of Uridine was added in step 3 of the process.

The test system of experiment [2] is MOLM-13 cells. The experiment is described as follows: MOLM-13 Cell Proliferation Assay (indicator of DHODH inhibition). Type of experiment: cell-based. To be noted: Homo sapiens, 72 Hours of culture, CellTiter-Glo, no uridine. The method in brief: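 Low-passage MOLM-13 cells (10^4/well) in RPMI 1640 + 10% FBS exposed to compound (0.5% DMSO final) for 72 h at 37 °C, 5% CO2. Viability read by CellTiter-Glo luminescence; growth reflects de novo pyrimidine synthesis dependent on DHODH.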
(In general: Cellular ATP, detected with luciferase, serves as a proxy for viable cell number.)

Structures can show the parent of a compound that is named as a salt.

For orientation: IC50 means the concentration needed to halve the response being measured. Turning to `FC(F)(F)c1cc(C(F)(F)F)nc(N2CCc3c([nH]c4ccc(Cl)cc34)C2c2cnc(N3CCOCC3)nc2)n1` (stereo not shown) [Compound 358, 2-[4,6-bis(trifluoromethyl)pyrimidin-2-yl]-6-chloro-1-[2-(morpholin-4-yl)pyrimidin-5-yl]-2,3,4,9-tetrahydro-1H-pyrido[3,4-b]indole formate (1:1)], the IC50 in experiment [1] turned out to be 12300 nM; in experiment [2] it was 0.8 nM.
On to `Cc1cc(C(F)(F)F)nc(N2CCc3c([nH]c4ccc(Cl)cc34)C2c2cnc(N3CCOCC3)nc2)n1` (stereo not shown) [Compound 374, 6-chloro-2-[4-methyl-6-(trifluoromethyl)pyrimidin-2-yl]-1-[2-(morpholin-4-yl)pyrimidin-5-yl]-2,3,4,9-tetrahydro-1H-pyrido[3,4-b]indole], for which the 50% inhibitory concentration (IC50) in experiment [1] turned out to be 8840 nM; in experiment [2], 1.6 nM.
Take `N#Cc1ccc(C2c3[nH]c4ccc(Cl)cc4c3CCN2c2nccc(C(F)(F)F)n2)c(F)c1` (stereo not shown) [Compound 255, 4-{6-chloro-2-[4-(trifluoromethyl)pyrimidin-2-yl]-2,3,4,9-tetrahydro-1H-pyrido[3,4-b]indol-1-yl}-3-fluorobenzonitrile]: the 50% inhibitory concentration (IC50) is 15600 nM in experiment [1] and 2.2 nM in experiment [2].
The matching figures for `FC(F)(F)c1nc(N2CCc3c([nH]c4ccc(Cl)cc34)[C@@H]2c2cnc(N3CCOCC3)nc2)nc(C(F)(F)F)n1` [Compound 406, (1S)-2-[4,6-bis(trifluoromethyl)-1,3,5-triazin-2-yl]-6-chloro-1-[2-(morpholin-4-yl)pyrimidin-5-yl]-2,3,4,9-tetrahydro-1H-pyrido[3,4-b]indole]: 8350 nM and 0.3 nM.
The matching figures for `Cc1ccnc(N2CCc3c([nH]c4ccc(Cl)cc34)C2c2ccc(N3CCOCC3)nc2)n1` (stereo not shown) [Compound 352, 6-chloro-2-(4-methylpyrimidin-2-yl)-1-[6-(morpholin-4-yl)pyridin-3-yl]-2,3,4,9-tetrahydro-1H-pyrido[3,4-b]indole]: 6410 nM and 8.9 nM.
The matching figures for `Cc1nc(C)nc(N2CCc3c([nH]c4cc(N)c(Cl)cc34)C2c2cnc(N3CCOCC3)nc2)n1` (stereo not shown) [Compound 320, 6-chloro-2-(4,6-dimethyl-1,3,5-triazin-2-yl)-1-[2-(morpholin-4-yl)pyrimidin-5-yl]-2,3,4,9-tetrahydro-1H-pyrido[3,4-b]indol-7-amine]: 9810 nM and 11.7 nM.
With `Nc1cc(Cl)cc2c3c([nH]c12)C(c1cnc(N2CCOCC2)nc1)N(c1nccc(C(F)(F)F)n1)CC3` (stereo not shown) [Compound 310, 6-chloro-1-[2-(morpholin-4-yl)pyrimidin-5-yl]-2-[4-(trifluoromethyl)pyrimidin-2-yl]-2,3,4,9-tetrahydro-1H-pyrido[3,4-b]indol-8-amine], the figures for the IC50 in experiment [1] and in experiment [2] were 14400 nM and 1.1 nM, respectively.
Turning to `Cc1nc(C)nc(N2CCc3c([nH]c4ccc(Cl)cc34)C2c2ccc(N3CCOCC3)nc2)n1` (stereo not shown) [Compound 324, 6-chloro-2-(4,6-dimethyl-1,3,5-triazin-2-yl)-1-[6-(morpholin-4-yl)pyridin-3-yl]-2,3,4,9-tetrahydro-1H-pyrido[3,4-b]indole], the 50% inhibitory concentration (IC50) in experiment [1] is 9720 nM; in experiment [2] it was 13.4 nM.
Regarding `FC(F)(F)c1ncnc(N2CCc3c([nH]c4ccc(Cl)cc34)[C@@H]2c2ccc(N3CCOCC3)nc2)n1` [Compound 462, (1S)-6-chloro-1-[6-(morpholin-4-yl)pyridin-3-yl]-2-[4-(trifluoromethyl)-1,3,5-triazin-2-yl]-2,3,4,9-tetrahydro-1H-pyrido[3,4-b]indole], the IC50 was 13600 nM in experiment [1] and 1.3 nM in experiment [2].
The matching figures for `Cc1ccc(C2c3[nH]c4ccc(Br)cc4c3CCN2c2nccc(C(F)(F)F)n2)cc1` (stereo not shown) [Compound 264, 6-bromo-1-(4-methylphenyl)-2-[4-(trifluoromethyl)pyrimidin-2-yl]-2,3,4,9-tetrahydro-1H-pyrido[3,4-b]indole]: 20900 nM and 0.9 nM.
`N#Cc1cc(C#N)nc(N2CCc3c([nH]c4ccc(Cl)cc34)[C@@H]2c2cnc(N3CCOCC3)nc2)n1` [Compound 398, 2-{(1S)-6-chloro-1-[2-(morpholin-4-yl)pyrimidin-5-yl]-1,3,4,9-tetrahydro-2H-pyrido[3,4-b]indol-2-yl}pyrimidine-4,6-dicarbonitrile]: the IC50 in experiment [1] is 720 nM; in experiment [2] it was 10.6 nM.
Take `Cc1nc(C)nc(N2CCc3c([nH]c4c(O)cc(Cl)cc34)C2c2ccc(C)c(F)c2F)n1` (stereo not shown) [Compound 348, 6-chloro-1-(2,3-difluoro-4-methylphenyl)-2-(4,6-dimethyl-1,3,5-triazin-2-yl)-2,3,4,9-tetrahydro-1H-pyrido[3,4-b]indol-8-ol]: the IC50 in experiment [1] is 2000 nM; in experiment [2] it was 1.2 nM.
Regarding `Fc1cc2[nH]c3c(c2cc1Cl)CCN(c1nccc(C(F)(F)F)n1)C3c1cccc(F)c1F` (stereo not shown) [Compound 108, 6-chloro-1-(2,3-difluorophenyl)-7-fluoro-2-[4-(trifluoromethyl)pyrimidin-2-yl]-2,3,4,9-tetrahydro-1H-pyrido[3,4-b]indole], the IC50 in experiment [1] turned out to be 8270 nM; in experiment [2], 1.9 nM.
The matching figures for `Cc1ccc(C2c3[nH]c4cc(F)c(Cl)cc4c3CCN2c2nccc(C(F)(F)F)n2)cc1` (stereo not shown) [Compound 72, 6-chloro-7-fluoro-1-(4-methylphenyl)-2-[4-(trifluoromethyl)pyrimidin-2-yl]-2,3,4,9-tetrahydro-1H-pyrido[3,4-b]indole]: 18800 nM and 3.5 nM.
On to `Cc1ccc(C2c3[nH]c4ccc([N+](=O)[O-])cc4c3CCN2c2nccc(C(F)(F)F)n2)c(F)c1F` (stereo not shown) [Compound 305, 1-(2,3-difluoro-4-methylphenyl)-6-nitro-2-[4-(trifluoromethyl)pyrimidin-2-yl]-2,3,4,9-tetrahydro-1H-pyrido[3,4-b]indole], for which the IC50 was determined as 11600 nM in experiment [1] and 1 nM in experiment [2].
The matching figures for `Cc1ccc(C2c3[nH]c4c(N)cc(Cl)cc4c3CCN2c2nccc(C(F)(F)F)n2)cc1` (stereo not shown) [Compound 231, 6-chloro-1-(4-methylphenyl)-2-[4-(trifluoromethyl)pyrimidin-2-yl]-2,3,4,9-tetrahydro-1H-pyrido[3,4-b]indol-8-amine]: 19300 nM and 1.1 nM.
`Cc1nc(C)nc(N2CCc3c([nH]c4ccc(Cl)cc34)C2c2ccc(C)c(F)c2F)n1` (stereo not shown) [Compound 253, 6-chloro-1-(2,3-difluoro-4-methylphenyl)-2-(4,6-dimethyl-1,3,5-triazin-2-yl)-2,3,4,9-tetrahydro-1H-pyrido[3,4-b]indole]: the IC50 in experiment [1] was found to be 6560 nM; in experiment [2], 1.9 nM.
In the case of `Cc1nc(C)nc(N2CCc3c([nH]c4ccc(Cl)cc34)C2c2cnc(N3CCOCC3)nc2)n1` (stereo not shown) [Compound 293, 6-chloro-2-(4,6-dimethyl-1,3,5-triazin-2-yl)-1-[2-(morpholin-4-yl)pyrimidin-5-yl]-2,3,4,9-tetrahydro-1H-pyrido[3,4-b]indole], the results for the 50% inhibitory concentration (IC50) in experiment [1] and in experiment [2] were 10600 nM and 12.8 nM, respectively.
Turning to `Cc1nc(C)nc(N2CCc3c([nH]c4ccc(Cl)cc34)C2c2ccc(N3CCOCC3)c(F)c2F)n1` (stereo not shown) [Compound 284, 6-chloro-1-[2,3-difluoro-4-(morpholin-4-yl)phenyl]-2-(4,6-dimethyl-1,3,5-triazin-2-yl)-2,3,4,9-tetrahydro-1H-pyrido[3,4-b]indole], the values for the IC50 in experiment [1] and in experiment [2] were 12200 nM and 12.9 nM, respectively.
Regarding `N#Cc1ccnc(N2CCc3c([nH]c4ccc(Cl)cc34)C2c2ccc(N3CCOCC3)nc2)n1` (stereo not shown) [Compound 356, 2-{6-chloro-1-[6-(morpholin-4-yl)pyridin-3-yl]-1,3,4,9-tetrahydro-2H-pyrido[3,4-b]indol-2-yl}pyrimidine-4-carbonitrile], the IC50 in experiment [1] is 6960 nM; in experiment [2] it was 4.6 nM.
As for `Cc1ccc(C2c3[nH]c4ccc(N(C)C)cc4c3CCN2c2nccc(C(F)(F)F)n2)c(F)c1F` (stereo not shown) [Compound 330, 1-(2,3-difluoro-4-methylphenyl)-N,N-dimethyl-2-[4-(trifluoromethyl)pyrimidin-2-yl]-2,3,4,9-tetrahydro-1H-pyrido[3,4-b]indol-6-amine], the half-maximal inhibitory concentration (IC50) came to 11500 nM in experiment [1] and 11.3 nM in experiment [2].
With `CN1CCN(c2ncc(C3c4[nH]c5ccc(Cl)cc5c4CCN3c3nc(C(F)(F)F)cc(C(F)(F)F)n3)cn2)CC1` (stereo not shown) [Compound 381, 2-[4,6-bis(trifluoromethyl)pyrimidin-2-yl]-6-chloro-1-[2-(4-methylpiperazin-1-yl)pyrimidin-5-yl]-2,3,4,9-tetrahydro-1H-pyrido[3,4-b]indole], the IC50 in experiment [1] stood at 4290 nM; in experiment [2], 0.7 nM.
Regarding `Cc1ccc([C@H]2c3[nH]c4ccc(Cl)cc4c3CCN2c2nc(C(F)(F)F)cc(C(F)(F)F)n2)c(F)c1F` [Compound 407, (1S)-2-[4,6-bis(trifluoromethyl)pyrimidin-2-yl]-6-chloro-1-(2,3-difluoro-4-methylphenyl)-2,3,4,9-tetrahydro-1H-pyrido[3,4-b]indole], the IC50 in experiment [1] came to 14700 nM; in experiment [2], 0.3 nM.

Source of the values: patent publication US20250186437A1, “CARBOLINE COMPOUNDS AND USE THEREOF” (PTC Therapeutics, Inc., priority 2021, published 2025).
